Source: patent publication US20010047099A1, “4-aminopicolinates and their use as herbicides” (priority 2000, published 2001)

Legend:
[1] = test system: velvetleaf (Abutilon theophrasti); assay: Preemergence herbicidal activity; assay type: in vivo; conditions: Table 6 (headed Post-emergent; text: preemergence), after 3 weeks
Method in brief: (§1)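 Test compounds, dissolved in acetone/DMSO and diluted with 0.1 percent Tween 155 in water, are applied evenly to the surface of seeded soil (loam/sand, pH about 8.1) before emergence. Plants grow in the greenhouse for 3 weeks before visual rating against untreated controls on a 0-100 percent scale.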

[2] = test system: pigweed (Amaranthus retroflexus); assay: Preemergence herbicidal activity; assay type: in vivo; conditions: Table 6 (headed Post-emergent; text: preemergence), after 3 weeks
Method in brief: as §1

[3] = test system: morningglory (Ipomoea hederacea); assay: Preemergence herbicidal activity; assay type: in vivo; conditions: Table 6 (headed Post-emergent; text: preemergence), after 3 weeks
Method in brief: as §1

[4] = test system: wheat (Triticum aestivum); assay: Postemergence herbicidal activity, selectivity to wheat; assay type: in vivo; conditions: Table 5; crop (wheat); rate 125 ppm
Experimental: (§2) Seeds of the desired test plant species were planted in Grace-Sierra MetroMix® 306 planting mixture, which typically has a pH of 6.0 to 6.8 and an organic matter content of about 30 percent, in plastic pots with a surface area of 64 square centimeters. When required to ensure good germination and healthy plants, a fungicide treatment and/or other chemical or physical treatment was applied. The plants were grown for 7-21 days in a greenhouse with an approximate 15 hr photoperiod which was maintained at about 23-29° C. during the day and 22-28° C. during the night. Nutrients and water were added on a regular basis and supplemental lighting was provided with overhead metal halide 1000-Watt lamps as necessary. The plants were employed for testing when they reached the first or second true leaf stage.
(§3) A weighed amount, determined by the highest rate to be tested, of each test compound was placed in a 20 mL glass vial and was dissolved in 4 mL of a 97:3 v/v (volume/volume) mixture of acetone and dimethyl sulfoxide (DMSO) to obtain concentrated stock solutions. […] The concentrated stock solutions obtained were diluted with an aqueous mixture containing acetone, water, isopropyl alcohol, DMSO, Atplus 411F crop oil concentrate, and Triton X-155 surfactant in a 48.5:39:10:1.5:1.0:0.02 v/v ratio to obtain spray solutions of known concentration. The solutions containing the highest concentration to be tested were prepared by diluting 2 mL aliquots of the stock solution with 13 mL of the mixture and lower concentrations were prepared by serial dilution of the stock solution. Approximately 1.5 mL aliquots of each solution of known concentration were sprayed evenly onto each of the test plant pots using a DeVilbiss atomizer driven by compressed air pressure of 2 to 4 psi (140 to 280 kilopascals) to obtain thorough coverage of each plant. Control plants were sprayed in the same manner with the aqueous mixture. In this test an application rate of 1 ppm results in the application of approximately 1 g/Ha.
(§4) The treated plants and control plants were placed in a greenhouse as described above and watered by sub-irrigation to prevent wash-off of the test compounds. After 2 weeks the condition of the test plants as compared with that of the untreated plants was determined visually and scored on a scale of 0 to 100 percent where 0 corresponds to no injury and 100 corresponds to complete kill.

[5] = test system: Canada thistle (Cirsium arvense); assay: Range & Pasture Crop Testing (postemergence track sprayer); assay type: in vivo; conditions: for Post-emergent Evaluation - % control CIRAR: Table 9, rate 70 g/Ha, 3 weeks after treatment
Experimental: (§5) By applying the well-accepted probit analysis as described by J. Berkson in Journal of the […], 48, 565 (1953) and by D. Finney in “Probit Analysis” Cambridge University Press (1952), the above data can be used to calculate GR50 and GR80 values, which are defined as growth reduction factors that correspond to the effective dose of herbicide required to kill or control 50 percent or 80 percent, respectively, of a target plant.
(§6) Rates are calculated based upon 5 doses being applied. The high rate (X), followed by serial dilutions of 1/2×, 1/4×, 1/8× and 1/16×. Compound requirements are based upon the 187 L/ha carrier volume, specifications of the delivery system (Mandel track sprayer) and generating 24 mL of technical spray material to allow for the dilutions and overage in the sprayer. [formula]
(§7) All technical materials were formulated in 97:3 (acetone:DMSO) with 0.25% X-77. The total volume of solvent is maintained at less than 7%. An overhead Mandel track sprayer calibrated to deliver 187 L/ha was used for all treatment applications (postemergence). Picloram was included as a comparison treatment.
(§8) Solutions were applied with a mechanized track-sprayer at the following settings:
(§9) Spray height: 17 inches above top of plants
(§10) This provides an application volume of 187 L/ha.
(§11) Percent weed control (burn down) was evaluated 3 weeks after treatment. Visual control on a 0-100 linear scale was used, with 0 representing no control and 100 representing total control. Burn down ratings were taken for annual and perennial weed species.

[6] = test system: chickweed (Stellaria media); assay: Postemergence herbicidal activity; assay type: in vivo
Method in brief: (§12)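 Greenhouse plants at first or second true leaf stage sprayed to coverage with compound in acetone/water/isopropanol/DMSO/crop oil/surfactant mixture; 1 ppm ≈ 1 g/Ha. Plants sub-irrigated afterward. Injury scored visually after 2 weeks versus untreated plants, 0 (none) to 100% (complete kill).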

[7] = test system: wild buckwheat (Polygonum convolvulus); assay: Postemergence herbicidal activity; assay type: in vivo
Method in brief: as §12

[8] = test system: cocklebur (Xanthium strumarium); assay: Postemergence herbicidal activity; assay type: in vivo; conditions: for Post-emergent Evaluation - % control XANST: Table 4
Method in brief: as §12

[9] = test system: lambsquarters (Chenopodium album); assay: Postemergence herbicidal activity; assay type: in vivo; conditions: Table 5; rate 125 ppm
Method in brief: as §12

[10] = test system: common ragweed (Ambrosia artemisiifolia); assay: Range & Pasture Crop Testing (postemergence track sprayer); assay type: in vivo; conditions: Table 9; rate 70 g/Ha; 3 week evaluation
Experimental: as §6, §7, §8, §9, §10, §11

[11] = test system: crested wheatgrass (Agropyron cristatum) (grass crop); assay: as above; assay type: in vivo; conditions: Table 9, rate 70 g/Ha, 3 weeks after treatment
Experimental: as §6, §7, §8, §9, §10, §11

[12] = test system: broadleaf dock (Rumex obtusifolia); assay: as above; assay type: in vivo; conditions: Table 9; rate 70 g/Ha; 3 weeks after treatment
Experimental: as §6, §7, §8, §9, §10, §11

[13] = test system: White Clover (Trifolium repens); assay: Range & Pasture Crop Testing (postemergence track sprayer); assay type: in vivo; conditions: Table 10
Experimental: as §5, §6, §7, §8, §9, §10, §11

[14] = test system: field bindweed (Convolvulus arvensis); assay: as above; assay type: in vivo
Experimental: as §5, §6, §7, §8, §9, §10, §11

[15] = test system: corn (Zea mays); assay: Postemergence herbicidal activity, selectivity to corn; assay type: in vivo; conditions: Table 4, crop (corn)
Experimental: as §2
as §3, with “Approximately 1.5 mL aliquots of each solution of known concentration were sprayed evenly onto each of the test plant pots using a DeVilbiss atomizer driven by compressed air pressure of 2 to 4 psi (140 to 280 kilopascals) to obtain thorough coverage of each plant. Control plants were sprayed in the same manner with the aqueous mixture. In this test an application rate of 1 ppm results in the application of approximately 1 g/Ha.” left out
as §4

[16] = test system: velvetleaf (Abutillon theophrasti); assay: Postemergence herbicidal activity; assay type: in vivo; conditions: Table 4
Method in brief: as §12

[17] = test system: pigweed (Amaranthus retroflexus); assay: Postemergence herbicidal activity; assay type: in vivo; conditions: Table 4
Method in brief: as §12

[18] = test system: sicklepod (Cassia obtusifolia); assay: Range & Pasture Crop Testing (postemergence track sprayer); assay type: in vivo; conditions: Table 8; salts of Compound 1; dose for 80 percent control
Experimental: as §5, §6, §7, §8, §9, §10, §11

[19] = Table 1, rate 125 ppm, visual, after 2 weeks
[20] = Table 10, clover pasture, postemergence
[21] = Stellaria media, post-emergence, 336 h, Table 1, rate 125 ppm, visual, after 2 weeks, read-out: Post-emergent % Control STEME
[22] = Fallopia convolvulus, post-emergence, 336 h, Table 1, rate 125 ppm, visual, after 2 weeks, read-out: Post-emergent % Control POLCO
[23] = Xanthium strumarium, post-emergence, 336 h, Table 1, rate 125 ppm, visual, after 2 weeks, read-out: Post-emergent % Control XANST

4-Amino-3,6-dichloro-5-methylthiopyridine-2-carboxylic acid [Compound 23]
% Control ABUTH ([1]; rate 560 ppm): 40% | % Control AMARE ([2]; rate 560 ppm): 40% | % Control IPOHE ([3]; rate 560 ppm): 0% | Post-emergent Evaluation - % control TRZAS [4]: 20% | Post-emergent Evaluation - % control CIRAR [5]: 80% | Post-emergent % Control STEME [6, 19]: 90% | Post-emergent Evaluation - % control STEME ([6]; Table 5, rate 125 ppm): 30% | Post-emergent % Control POLCO [7, 19]: 98% | Post-emergent Evaluation - % control POLCO ([7]; Table 5, rate 125 ppm): 98% | Post-emergent % Control XANST [8, 19]: 90% | Post-emergent Evaluation - % control CHEAL [9]: 90% | Post-emergent Evaluation - % control AMBEL [10]: 85% | Post-emergent Evaluation - % control AGRCR [11]: 30% | Post-emergent Evaluation - % control RUMOB [12]: 100%

CC(C)OC(=O)c1nc(Cl)cc(N)c1Cl [Compound 6, i-propyl 4-amino-3,6-dichloropyridine-2-carboxylate]
pest or weed control at 280 ppm ([1]; Abutilon theophrasti, 504 h, rate 280 ppm, read-out: % Control ABUTH): 100% | pest or weed control at 280 ppm ([2]; Amaranthus retroflexus, 504 h, rate 280 ppm, read-out: % Control AMARE): 100% | pest or weed control at 280 ppm ([3]; Ipomoea, 504 h, rate 280 ppm, read-out: % Control IPOHE): 100% | melting point: 114 to 115 °C | GR20 TRFRE [13]: 98.8 g/ha | Post-emergent Evaluation - % control CIRAR [5]: 95% | GR80 CIRAR [5, 20]: <17.5 g/ha | GR80 CONAR [14, 20]: 98.8 g/ha | pest or weed control at 125 ppm [6, 21]: 100% | pest or weed control at 125 ppm [7, 22]: 100% | pest or weed control at 125 ppm [8, 23]: 100% | Post-emergent Evaluation - % control AMBEL [10]: 93% | Post-emergent Evaluation - % control AGRCR [11]: 30% | Post-emergent Evaluation - % control RUMOB [12]: 100%

CN(C)c1cc(Cl)nc(C(=O)O)c1Cl [Compound 33, 4-N,N-dimethylamino-3,6-dichloropyridine-2-carboxylic acid]
pest or weed control at 560 ppm ([1]; Abutilon theophrasti, 504 h, rate 560 ppm, read-out: % Control ABUTH): 98% | pest or weed control at 560 ppm ([2]; Amaranthus retroflexus, 504 h, rate 560 ppm, read-out: % Control AMARE): 100% | pest or weed control at 560 ppm ([3]; Ipomoea, 504 h, rate 560 ppm, read-out: % Control IPOHE): 100% | melting point: 110 °C | Post-emergent Evaluation - % control ZEAMX ([15]; rate 125 ppm): 20% | Post-emergent Evaluation - % control ABUTH ([16]; rate 125 ppm): 80% | pest or weed control at 250 ppm ([6]; Stellaria media, post-emergence, 336 h, Table 1, rate 250 ppm, visual, after 2 weeks, read-out: Post-emergent % Control STEME): 100% | pest or weed control at 250 ppm ([7]; Fallopia convolvulus, post-emergence, 336 h, Table 1, rate 250 ppm, visual, after 2 weeks, read-out: Post-emergent % Control POLCO): 100% | Post-emergent Evaluation - % control XANST ([8]; rate 125 ppm): 100% | pest or weed control at 250 ppm ([8]; Xanthium strumarium, post-emergence, 336 h, Table 1, rate 250 ppm, visual, after 2 weeks, read-out: Post-emergent % Control XANST): 100% | Post-emergent Evaluation - % control AMARE ([17]; rate 125 ppm): 50%

Nc1c(F)c(C(=O)O)nc(Cl)c1Cl [Compound 43, 4-Amino-5,6-dichloro-3-fluoropyridine-2-carboxylic acid]
pest or weed control at 140 ppm ([1]; Abutilon theophrasti, 504 h, rate 140 ppm, read-out: % Control ABUTH): 80% | pest or weed control at 140 ppm ([2]; Amaranthus retroflexus, 504 h, rate 140 ppm, read-out: % Control AMARE): 30% | pest or weed control at 140 ppm ([3]; Ipomoea, 504 h, rate 140 ppm, read-out: % Control IPOHE): 70% | melting point: 208 °C (dec.) | Post-emergent Evaluation - % control ZEAMX ([15]; rate 250 ppm): 0% | Post-emergent Evaluation - % control ABUTH ([16]; rate 250 ppm): 70% | pest or weed control at 125 ppm [6, 21]: 85% | pest or weed control at 125 ppm [7, 22]: 60% | Post-emergent Evaluation - % control XANST ([8]; rate 250 ppm): 85% | pest or weed control at 125 ppm [8, 23]: 90% | Post-emergent Evaluation - % control AMARE ([17]; rate 250 ppm): 90%

Nc1cc(Cl)nc(C(=O)[O-])c1Cl.[K+] [potassium salt]
Post-emergent GR80 CIRAR ([5]; Table 8, salts of Compound 1, 3 week evaluation): 27 g/Ha | Post-emergent GR80 CASOB [18]: <8.8 g/Ha | Post-emergent GR80 CONAR ([14]; Table 8, salts of Compound 1, dose for 80 percent control): 36 g/Ha
